Entries after “also recorded” stand apart in the source; their conditions may differ. Read-outs that look alike come from different tables or passages of the source. Numbered stars: 1 amine (or outer) side, 2 acyl side, 3 side chain; on linkers, the order of the positions; unused ones are H or OH. Bridge positions count the residues as written; N and C are the ends. Square brackets hold non-standard residues; d marks the D form. Peptide text beside a SMILES is read from it. * marks the point of attachment. X2 = O=C1OC(C2CCCN2[*:1])=NC1C(=S)NC(CO)C(=O)[*:2]; X1 = CC(C)CC(=O)C1=NC(C(=S)NCC(=O)*)C(=O)O1
How the values were obtained:
[1] = MB in serum after i.p. injection; type: in vivo, rat
Method: LPP rats were treated with MB either by daily i.p. injections for 3 or 5 consecutive days, or twice daily i.p. injections for 8 consecutive days at a dose of 150 mg/kg bw or 4 days via the drinking water with D-PA at a dose of 100 mg/kg bw/d or TETA at 480 mg/kg bw/d, respectively (Togashi et al., Hepatology 15, 82-87 (1992)). Based on a mean copper content of 250 μg/g w.w. in Atp7b−/− rat livers at the age of treatment start (Zischka et al., log. cit.), a LPP−/− rat liver of 8 g w.w. contains around 31.5 μmol copper. Single MB doses were chosen equimolar to this copper amount. […] Assuming 40 ml water intake per day for a rat weighing 250 g this translates to a dose of 480 mg/kg bw/d. With respect to the mean liver copper content in LPP−/− rats aged 85 days, the molar ratios of the chelators applied was MB 1:D-PA 4.3:TETA 17.4, respectively. […]
Competitive ELISA. […] After 10 min, the plates were washed, bound antibodies against MB were detected with HRP conjugated mAbs against the rat IgG isotypes and HRP was visualized with TMB. MAbs that recognized free MB (no signal when pre-incubated with MB, positive signal in the buffer control) were further analyzed in a serial dilution of MB (1000 ng/ml to 2 ng/ml). […]

HepG2 cells [2] = assay: Cellular MB uptake by competitive ELISA; type: in vitro ADME; conditions: 2 and 24 hours
Method: Cellular MB uptake was determined from cell lysates incubated for 2 or 24 h with MB at different concentrations by a competitive ELISA using a monoclonal anti-MB antibody.
Competitive ELISA. All 86 TCS were diluted 1:10 with buffer (PBS, 5% FCS, 0.01% sodium acide). 50 μl of each TCS were pre-incubated with 50 μl MB solution (1000 ng/ml in buffer) or buffer overnight. The experiments were run in duplicates. 50 μl of the pre-incubated sample were added to ELISA plates coated with MB as used for screening. After 10 min, the plates were washed, bound antibodies against MB were detected with HRP conjugated mAbs against the rat IgG isotypes and HRP was visualized with TMB. MAbs that recognized free MB (no signal when pre-incubated with MB, positive signal in the buffer control) were further analyzed in a serial dilution of MB (1000 ng/ml to 2 ng/ml). The four mAbs that best recognized free MB were established (10610, 12D9, 18H7, 21G5, all of rat IgG2a subclass). To increase the sensitivity of the test system, the TCS of the established hybridomas were titrated on ELISA plates coated with MB. The titer of […] was far better (1:1260) than of 12D9 (1:320), 18H7 (1:10) and 21G5 (1:320).
For the test system 10610 was used at a dilution of 1:500 and the pre-incubation time reduced to one hour.

LPP−/− rats [3] = assay: Short-term in vivo treatment of LPP−/− rats; set-up: species or system rat
Method: (§1) LPP rats were treated with MB either by daily i.p. injections for 3 or 5 consecutive days, or twice daily i.p. injections for 8 consecutive days at a dose of 150 mg/kg bw or 4 days via the drinking water with D-PA at a dose of 100 mg/kg bw/d or TETA at 480 mg/kg bw/d, respectively (Togashi et al., Hepatology 15, 82-87 (1992)). Based on a mean copper content of 250 μg/g w.w. in Atp7b−/− rat livers at the age of treatment start (Zischka et al., log. cit.), a LPP−/− rat liver of 8 g w.w. contains around 31.5 μmol copper. Single MB doses were chosen equimolar to this copper amount. […] Assuming 40 ml water intake per day for a rat weighing 250 g this translates to a dose of 480 mg/kg bw/d. With respect to the mean liver copper content in LPP−/− rats aged 85 days, the molar ratios of the chelators applied was MB 1:D-PA 4.3:TETA 17.4, respectively. For the intravenous MB application (150 mg/kg bw), catheters connected to a PinPort™ (Instech Laboratories, Inc., USA) were inserted in the femoral vein of the rat, fixed with non-absorbable sutures and subcutaneously tunneled and exteriorized through a skin incision made between the shoulders.
Formalin-fixed, paraffin-embedded liver samples were cut into 4 μm-thick sections and either stained with hematoxylin and eosin for standard analyses or with Masson trichrome for analysis of fibrotic tissue. AST activity and bilirubin concentration in animal plasma or serum were measured with a Reflotron system (Roche).
Copper in liver homogenates, cell lysates and mitochondrial preparations were analyzed by ICP-OES (Ciros Vision, SPECTRO Analytical Instruments GmbH) after wet ashing of samples with 65% nitric acid (Zischka et al., log. cit.).
The efficiency of a short-term MB treatment schedule was assessed in LPP−/− rats at the age of liver disease onset (85-90 days). Animals received MB (i.p.) either for 3 or 5 days or the clinically used copper chelators D-PA or TETA, which were orally administered for 4-days.

LPP+/− rats = conditions: rat, in vivo
Method: as §1

LPP−/− rats [4] = assay: Repetitive MB treatment cycles in LPP−/− rats; type: in vivo, rat
From the text: Due to the efficiency of the short-term MB treatment, we did a first test aiming at replacing daily chelation therapy by a regimen consisting of repetitive treatment cycles interrupted by longer observation cycles (FIG. 14). Five LPP−/− rats as well as five age- and sex-matched LPP+/− controls were included. One pair of rats was sacrificed at experimental days 1, 8, 29, 36 and 85, respectively. […] The four remaining LPP−/− rats were subjected to the first treatment cycle consisting of three daily MB injections (i.p.) for five days. […] Upon the second treatment cycle copper loads decreased again, but now down to 25% of the starting values, resulting in an unprecedented low copper load in LPP−/− mitochondria (day 36, pair 4). […] At experimental day 85, liver and mitochondrial copper loads had risen back to values before beginning of the treatment (day 1), associated with an impaired mitochondrial function (65% ATP production capacity) in comparison to its LPP+/− control (pair 5).

HepG2 cells [5] = assay: Neutral red cell toxicity assay; type: cell-based; conditions: 24 hours, 0.05 to 1 mM Zinc-MB
Method: Neutral red cell toxicity assay was done as described elsewhere (Repetto et al., Nat Protoc 3, 1125-1131 (2008)). In brief, 2×10^4 cells were incubated for 24 hours either with medium alone (containing 2% FCS, negative control), 0.05 to
1 mM Zinc-MB, or 0.25 mM CCCP as mitochondriotoxic positive control and subsequently analyzed by neutral red.

HepG2 cells [6] = assay: Mitochondrial membrane potential staining of HepG2 cells; type: cell-based; conditions: 500 μM MB
Method: For immunofluorescence staining, 2×10^4 cells were incubated with either medium alone, 500 μM MB or 250 μM CCCP in black 96-well plates with clear glass bottom. Staining was done by 1.6 μM Hoechst 33342 (ex 360-400 nm, em 410-480 nm), 300 nM MitoTracker® red (ex 620-640 nm, em 650-760 nm), and 1 μM nonyl acridine orange (NAO, ex 460-490 nm, em 500-550 nm) for 40 minutes at 37° C. After a washing step, fluorescence was analyzed.

metallothionein = conditions: in vitro and in vivo experiments; cited from earlier work
[7] = MB i.p. 3 or 5 days, D-PA or TETA 4 days
[8] = i.v. MB daily, five consecutive days
[9] = day 36, after second treatment cycle

CSCCC(NC(=O)C1CSSCC(NC(=O)C(CO)NC(=O)CNC(=S)C2N=C(C(=O)CC(C)C)OC2=O)C(=O)NC(Cc2ccc(O)cc2)C(=O)N2CCCC2C2=NC(C(=O)O2)C(=S)NC(CO)C(=O)N1)C(=O)O (stereo not shown) [MB] (X1-SCY[X2]CM-OH; disulfide 2-5; configuration not given here)
time MB detectable in the serum [1]: 30 min | time MB detectable in the serum ([1]; n=2): half an hour | intracellular MB uptake (HepG2 cells [2]): taken up in a dose dependent manner | histopathological liver damage (LPP−/− rats [3]; MB 150 mg/kg bw i.p. daily 3 or 5 days, D-PA 100 mg/kg bw/d or TETA 480 mg/kg bw/d oral 4 days): strong reduction of histopathological liver damage markers | duration of normal serum AST on MB drug holiday (LPP−/− rats [3]; MB five days, then drug holiday, zinc enriched food (1000 ppm)): at least two weeks | body weight (LPP−/− rats [3]; MB i.p. 3 or 5 days): regained body weight | mitochondrial copper (LPP−/− rats [3]; [7]): significant reduction at the mitochondrial copper level | serum AST levels (LPP−/− rats [3]; [7]): markedly decreased | whole liver copper (LPP−/− rats [3]; [7]): progressive reduction in total liver copper; also recorded: progressive but minor reduction at the whole liver copper level | serum AST (LPP−/− rats [3]; after 5 days of MB treatment, two onset and one diseased rat): < 200 U/L | severely impaired mitochondria (type 4) in isolates (LPP−/− rats [3]; electron microscopy, short-term treatment): almost absent | body weight (LPP−/− rats [3]; i.v. MB 150 mg/kg bw daily, five consecutive days): All animals regained bodyweight | AST or bilirubin levels (LPP−/− rats [3]; [8]): levels returned to normal | copper content of whole liver and purified mitochondria (LPP−/− rats [3]; [8]): profound reduction in copper content | mitochondrial copper load (LPP−/− rats [3]; one week: 5× MB i.p., 5× MB i.v., 16× MB i.p.): drastically reduce the mitochondrial copper load | ATP production of isolated mitochondria (LPP−/− rats [3]; short term MB treatments): reverse this impairment | body weight, liver copper concentration, serum AST and bilirubin (LPP+/− rats): remained within the physiological range | signs of toxicity (LPP+/− rats): did not exhibit any signs of toxicity | copper loads relative to starting values (LPP−/− rats [4]; [9]): 25% | decoppering efficiency (LPP−/− rats [4]; [9]): 75% | ATP production capacity vs LPP+/− control (LPP−/− rats [4]; experimental day 85): 65% | reduction in copper load (LPP−/− rats [4]; experimental day eight, after first cycle (three daily MB i.p. for five days)): 40% | health status during observation period (LPP−/− rats [4]; further seven weeks after second cycle): stayed healthy | mitochondrial and liver copper load (LPP−/− rats [4]; recurrent treatment cycles): marked reduction in mitochondrial and liver copper load | time/age to disease onset vs untreated LPP−/− rats (LPP−/− rats [4]; recurrent treatment cycles): doubling of the age; also recorded: doubling of time before disease onset | cytotoxic effects (neutral red) (HepG2 cells [5]): only observed at millimolar MB concentrations | mitochondrial membrane potential (HepG2 cells [6]): reduced the mitochondrial membrane potential only partially; also recorded: only intermediate phases of mitochondrial membrane potential loss | removal of Cu from metallothionein (metallothionein): has been shown to remove Cu from metallothionein

Reference: patent US11000568B2, “Means and methods for treating copper-related diseases” (HELMHOLTZ ZENTRUM MÜNCHEN—DEUTSCHES FORSCHUNGSZENTRUM FÜR …, priority 2015, dated 2021)
